Measurements: US8741897B2, “Glucocorticoid mimetics, methods of making them, pharmaceutical compositions and uses thereof” (Boehringer Ingelheim Pharmaceuticals Inc., priority 2003, dated 2014)

Key:
[1] = molecular target: T1, human glucocorticoid receptor (GR) complex (Homo sapiens, UniProt P04150); assay: Glucocorticoid receptor competitive binding assay (fluorescence polarization, TAMRA-labeled dexamethasone probe); settings: compounds of Formula (IA)
T1 construct: made in house; host or cells: insect expression system (baculovirus lysate)
T1 sequence (P04150 1-777): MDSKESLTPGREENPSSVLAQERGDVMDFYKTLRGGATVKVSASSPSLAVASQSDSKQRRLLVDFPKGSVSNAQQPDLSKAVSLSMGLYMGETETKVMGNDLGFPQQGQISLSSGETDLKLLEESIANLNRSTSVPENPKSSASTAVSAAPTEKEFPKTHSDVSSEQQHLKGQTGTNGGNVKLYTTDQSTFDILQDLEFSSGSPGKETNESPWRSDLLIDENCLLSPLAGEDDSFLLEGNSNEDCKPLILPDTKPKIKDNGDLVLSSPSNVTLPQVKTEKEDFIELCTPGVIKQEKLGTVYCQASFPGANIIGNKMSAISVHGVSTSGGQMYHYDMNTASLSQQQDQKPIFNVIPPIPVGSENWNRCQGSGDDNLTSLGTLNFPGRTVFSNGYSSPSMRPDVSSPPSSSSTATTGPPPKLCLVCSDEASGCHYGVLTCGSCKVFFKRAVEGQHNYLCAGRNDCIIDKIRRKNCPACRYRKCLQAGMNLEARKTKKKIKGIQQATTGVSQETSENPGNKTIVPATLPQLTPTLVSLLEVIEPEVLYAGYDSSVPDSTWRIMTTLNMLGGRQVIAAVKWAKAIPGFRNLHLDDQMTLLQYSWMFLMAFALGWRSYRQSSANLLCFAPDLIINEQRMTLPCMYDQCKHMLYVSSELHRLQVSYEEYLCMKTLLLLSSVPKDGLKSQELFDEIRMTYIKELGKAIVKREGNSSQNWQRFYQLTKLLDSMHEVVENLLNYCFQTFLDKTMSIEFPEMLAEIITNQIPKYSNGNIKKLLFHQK
How it was run: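 Fluorescence-polarization competition against 15 nM TAMRA-dexamethasone (stock added to the mix) for human GR complex from baculovirus lysate diluted 1:170. Buffer: 10 mM TES, 50 mM KCl, 20 mM Na2MoO4, 1.5 mM EDTA, 0.04% CHAPS, 10% glycerol, 1 mM DTT, pH 7.4. IC50 from 4-parameter logistic fit.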

[2] = test system: glucocorticoid receptor function; assay: one or more of the above assays (GR binding and glucocorticoid receptor cell assays: aromatase, IL-6, TAT, MMTV-Luc, IL-8, ICAM-Luc); format: cell-based; settings: assay not specified per compound

Compound | activity in the GR binding assay [1] | activity as agonists of the glucocorticoid receptor function in one or more of the above assays [2]
COc1ccc(F)cc1C(C)(C)CC(O)(Cc1cc2cc(C#N)ncc2[nH]1)C(F)(F)F (stereo not shown) [2-[4-(5-Fluoro-2-methoxyphenyl)-2-hydroxy-4-methyl-2-trifluoromethylpentyl]-1H-pyrrolo[2,3-c]pyridine-5-carbonitrile] | potent activity | potent agonists
COc1ccc(F)cc1C(C)(C)CC(O)(Cc1cc2nc(C#N)ccc2[nH]1)C(F)(F)F (stereo not shown) [2-[4-(5-Fluoro-2-methoxyphenyl)-2-hydroxy-4-methyl-2-trifluoromethylpentyl]-1H-pyrrolo[3,2-b]pyridine-5-carbonitrile] | potent activity | potent agonists
COc1ccc(F)cc1C(C)(C)CC(O)(Cc1cc2c(C#N)nccc2[nH]1)C(F)(F)F (stereo not shown) [2-[4-(5-Fluoro-2-methoxyphenyl)-2-hydroxy-4-methyl-2-trifluoromethylpentyl]-1H-pyrrolo[3,2-c]pyridine-4-carbonitrile] | potent activity | potent agonists
Cc1ccc(F)cc1C(C)(C)CC(O)(Cc1cc2nc(C#N)ccc2[nH]1)C(F)(F)F (stereo not shown) [2-[4-(5-Fluoro-2-methylphenyl)-2-hydroxy-4-methyl-2-trifluoromethylpentyl]-1H-pyrrolo[3,2-b]pyridine-5-carbonitrile] | potent activity | potent agonists
CC(C)(C)c1ccc(O)c(C(C)(C)CC(O)(Cc2[nH]c3ccccc3c2C#N)C(F)(F)F)c1 (stereo not shown) [2-[4-(5-tert-Butyl-2-hydroxyphenyl)-2-hydroxy-4-methyl-2-trifluoromethylpentyl]-1H-indole-3-carbonitrile] | potent activity | potent agonists
COc1ccc(C(C)(C)C)cc1C(C)(C)CC(O)(Cc1[nH]c2ccccc2c1C#N)C(F)(F)F (stereo not shown) [2-[4-(5-tert-Butyl-2-methoxyphenyl)-2-hydroxy-4-methyl-2-trifluoromethylpentyl]-1H-indole-3-carbonitrile] | potent activity | potent agonists
CC(C)(CC(O)(Cc1ccnc2ccccc12)C(F)(F)F)c1cccc(O)c1 (stereo not shown) [3-(4,4,4-Trifluoro-3-hydroxy-1,1-dimethyl-3-quinolin-4-ylmethylbutyl)phenol] | potent activity | potent agonists
Cc1cc(CC(O)(CC(C)(C)c2cccc3c2OCC3)C(F)(F)F)cc(C)n1 (stereo not shown) [4-(2,3-Dihydrobenzofuran-7-yl)-2-(2,6-dimethylpyridin-4-ylmethyl)-1,1,1-trifluoro-4-methylpentan-2-ol] | potent activity | potent agonists
COc1ccc(OC)c(C(C)(C)CC(O)(Cc2cc3ccncc3[nH]2)C(F)(F)F)c1 (stereo not shown) [4-(2,5-Dimethoxyphenyl)-1,1,1-trifluoro-4-methyl-2-(1H-pyrrolo[2,3-c]pyridin-2-ylmethyl)pentan-2-ol] | potent activity | potent agonists
Cc1ccc(C)c(C(C)(C)CC(O)(Cc2cc3ccccc3[nH]2)C(F)(F)F)c1 (stereo not shown) [4-(2,5-Dimethylphenyl)-1,1,1-trifluoro-2-(1H-indol-2-ylmethyl)-4-methylpentan-2-ol] | potent activity | potent agonists
Cc1ccc(C)c(C(C)(C)CC(O)(Cc2ccnc3ccccc23)C(F)(F)F)c1 (stereo not shown) [4-(2,5-Dimethylphenyl)-1,1,1-trifluoro-4-methyl-2-quinolin-4-ylmethylpentan-2-ol] | potent activity | potent agonists
Cc1cccc(C)c1C(C)(C)CC(O)(Cc1cc2ccccc2[nH]1)C(F)(F)F (stereo not shown) [4-(2,6-Dimethylphenyl)-1,1,1-trifluoro-2-(1H-indol-2-ylmethyl)-4-methylpentan-2-ol] | potent activity | potent agonists
CC(C)(CC(O)(Cc1cc2ccccc2[nH]1)C(F)(F)F)c1cc(F)ccc1OC(F)F (stereo not shown) [4-(2-Difluoromethoxy-5-fluorophenyl)-1,1,1-trifluoro-2-(1H-indol-2-ylmethyl)-4-methylpentan-2-ol] | potent activity | potent agonists
Cc1ccc(C(C)(C)CC(O)(Cc2cc3ccccc3[nH]2)C(F)(F)F)cc1C (stereo not shown) [4-(3,4-Dimethylphenyl)-1,1,1-trifluoro-2-(1H-indol-2-ylmethyl)-4-methylpentan-2-ol] | potent activity | potent agonists
Cc1ccc(C(C)(C)CC(O)(Cc2ccnc3ccccc23)C(F)(F)F)cc1C (stereo not shown) [4-(3,4-Dimethylphenyl)-1,1,1-trifluoro-4-methyl-2-quinolin-4-ylmethylpentan-2-ol] | potent activity | potent agonists
CC(C)(CC(O)(Cc1cc2ccccc2[nH]1)C(F)(F)F)c1cccc(Br)c1 (stereo not shown) [4-(3-Bromophenyl)-1,1,1-trifluoro-2-(1H-indol-2-ylmethyl)-4-methylpentan-2-ol] | potent activity | potent agonists
CC(C)(CC(O)(Cc1cc2ccccc2[nH]1)C(F)(F)F)c1cccc(Cl)c1 (stereo not shown) [4-(3-Chlorophenyl)-1,1,1-trifluoro-2-(1H-indol-2-ylmethyl)-4-methylpentan-2-ol] | potent activity | potent agonists
CC(C)(CC(O)(Cc1ccnc2ccccc12)C(F)(F)F)c1cccc(Cl)c1 (stereo not shown) [4-(3-Chlorophenyl)-1,1,1-trifluoro-4-methyl-2-quinolin-4-ylmethylpentan-2-ol] | potent activity | potent agonists
CN(C)c1ccc(C(C)(C)CC(O)(Cc2ccnc3ccccc23)C(F)(F)F)cc1 (stereo not shown) [4-(4-Dimethylaminophenyl)-1,1,1-trifluoro-4-methyl-2-quinolin-4-ylmethylpentan-2-ol] | potent activity | potent agonists
CC(C)(CC(O)(Cc1cc2ccncc2[nH]1)C(F)(F)F)c1cc(Br)cc2c1OCC2 (stereo not shown) [4-(5-Bromo-2,3-dihydrobenzofuran-7-yl)-1,1,1-trifluoro-4-methyl-2-(1H-pyrrolo[2,3-c]pyridin-2-ylmethyl)pentan-2-ol] | potent activity | potent agonists
CC(C)(CC(O)(Cc1cc2cnccc2[nH]1)C(F)(F)F)c1cc(Br)cc2c1OCC2 (stereo not shown) [4-(5-Bromo-2,3-dihydrobenzofuran-7-yl)-1,1,1-trifluoro-4-methyl-2-(1H-pyrrolo[3,2-c]pyridin-2-ylmethyl)pentan-2-ol] | potent activity | potent agonists
CC(C)(CC(O)(Cc1cc2ccncc2[nH]1)C(F)(F)F)c1cc(Cl)cc2c1OCC2 (stereo not shown) [4-(5-Chloro-2,3-dihydrobenzofuran-7-yl)-1,1,1-trifluoro-4-methyl-2-(1H-pyrrolo[2,3-c]pyridin-2-ylmethyl)pentan-2-ol] | potent activity | potent agonists
CC(C)(CC(O)(Cc1cc2cnccc2[nH]1)C(F)(F)F)c1cc(Cl)cc2c1OCC2 (stereo not shown) [4-(5-Chloro-2,3-dihydrobenzofuran-7-yl)-1,1,1-trifluoro-4-methyl-2-(1H-pyrrolo[3,2-c]pyridin-2-ylmethyl)pentan-2-ol] | potent activity | potent agonists
